Measured values as given in PubChem BioAssay AID1259407 (Chemical Carcinogenesis Research Information System (CCRIS), 2018).
Active and inactive are the calls of the source. How the calls were made is not given here.

Test system: CCRIS mutagenicity, Ames/micronucleus/aberration tests
Test: CCRIS mutagenicity studies
[1] = Test System: AMES SALMONELLA TYPHIMURIUM, Strain/Indicator: TA98, Metabolic Activation: NONE, Method: STANDARD PLATE
[2] = Test System: AMES SALMONELLA TYPHIMURIUM, Strain/Indicator: TA100, Metabolic Activation: NONE, Method: STANDARD PLATE
[3] = Test System: AMES SALMONELLA TYPHIMURIUM, Strain/Indicator: TA98, Metabolic Activation: NONE, Method: PREINCUBATION
[4] = Test System: AMES SALMONELLA TYPHIMURIUM, Strain/Indicator: TA102, Metabolic Activation: NONE, Method: STANDARD PLATE
[5] = Test System: AMES SALMONELLA TYPHIMURIUM, Strain/Indicator: TA100, Metabolic Activation: NONE, Method: PREINCUBATION

## CC1(C2CO2)CO1 (centres undefined)
[1]
  mutagenic call: active; positive
[2]
  mutagenic call: active; positive

## Cc1c(/C=N/OCc2cccc([N+](=O)[O-])c2)c2cc([N+](=O)[O-])ccc2n1Cc1ccccc1
[1]
  mutagenic call: active; positive
Test System: AMES SALMONELLA TYPHIMURIUM, Strain/Indicator: TA98, Metabolic Activation: RAT, LIVER, S-9, PHENOBARBITAL AND BETA-NAPHTHOFLAVONE, Method: STANDARD PLATE
  mutagenic call: active; positive
[2]
  mutagenic call: active; positive
Test System: AMES SALMONELLA TYPHIMURIUM, Strain/Indicator: TA100, Metabolic Activation: RAT, LIVER, S-9, PHENOBARBITAL AND BETA-NAPHTHOFLAVONE, Method: STANDARD PLATE
  mutagenic call: active; positive

## O=C(O)[C@H]1OC(Oc2c3ccccc3c3ccc4cccc5ccc2c3c54)[C@H](O)[C@@H](O)[C@@H]1O (some centres undefined)
[3]
  mutagenic call: inactive; negative
Test System: AMES SALMONELLA TYPHIMURIUM, Strain/Indicator: TA98, Metabolic Activation: RAT, LUNG, S-9, Method: PREINCUBATION
  mutagenic call: inactive; negative

## c1ccc2c(c1)-c1cccc3cc4ccccc4c-2c13
[1]
  mutagenic call: inactive; negative
Test System: AMES SALMONELLA TYPHIMURIUM, Strain/Indicator: TA98, Metabolic Activation: RAT, LIVER, S-9, AROCLOR 1254, Method: STANDARD PLATE
  mutagenic call: inactive; negative
Test System: AMES SALMONELLA TYPHIMURIUM, Strain/Indicator: TA100, Metabolic Activation: RAT, LIVER, S-9, AROCLOR 1254, Method: STANDARD PLATE
  mutagenic call: active; positive

## CCCCCCCOP(=S)([S-])OCCCCCCC.CCCCCCCOP(=S)([S-])OCCCCCCC.[Zn+2]
[1]
  mutagenic call: inactive; negative
Test System: AMES SALMONELLA TYPHIMURIUM, Strain/Indicator: TA98, Metabolic Activation: RAT, LIVER, S-9, Method: STANDARD PLATE
  mutagenic call: inactive; negative
[2]
  mutagenic call: inactive; negative
Test System: AMES SALMONELLA TYPHIMURIUM, Strain/Indicator: TA100, Metabolic Activation: RAT, LIVER, S-9, Method: STANDARD PLATE
  mutagenic call: inactive; negative
[4]
  mutagenic call: inactive; negative
Test System: AMES SALMONELLA TYPHIMURIUM, Strain/Indicator: TA102, Metabolic Activation: RAT, LIVER, S-9, Method: STANDARD PLATE
  mutagenic call: inactive; negative

## CC(=O)c1ccc2ccccc2c1
Test System: AMES SALMONELLA TYPHIMURIUM, Strain/Indicator: TA97, Metabolic Activation: NONE, Method: PREINCUBATION
  mutagenic call: inactive; negative
Test System: AMES SALMONELLA TYPHIMURIUM, Strain/Indicator: TA97, Metabolic Activation: RAT, LIVER, S-9, AROCLOR 1254, Method: PREINCUBATION
  mutagenic call: inactive; negative
Test System: AMES SALMONELLA TYPHIMURIUM, Strain/Indicator: TA102, Metabolic Activation: NONE, Method: PREINCUBATION
  mutagenic call: inactive; negative
Test System: AMES SALMONELLA TYPHIMURIUM, Strain/Indicator: TA102, Metabolic Activation: RAT, LIVER, S-9, AROCLOR 1254, Method: PREINCUBATION
  mutagenic call: inactive; negative

## CC(F)F
Test System: AMES SALMONELLA TYPHIMURIUM, Strain/Indicator: TA98, Metabolic Activation: NONE, Method: GAS EXPOSURE
  mutagenic call: inactive; negative
Test System: AMES SALMONELLA TYPHIMURIUM, Strain/Indicator: TA98, Metabolic Activation: RAT LIVER S-9, PHENOBARBITAL AND BETA-NAPHTHOFLAVONE, Method: GAS EXPOSURE
  mutagenic call: inactive; negative
Test System: AMES SALMONELLA TYPHIMURIUM, Strain/Indicator: TA100, Metabolic Activation: NONE, Method: GAS EXPOSURE
  mutagenic call: inactive; negative
Test System: AMES SALMONELLA TYPHIMURIUM, Strain/Indicator: TA100, Metabolic Activation: RAT LIVER S-9, PHENOBARBITAL AND BETA-NAPHTHOFLAVONE, Method: GAS EXPOSURE
  mutagenic call: inactive; negative
Test System: AMES SALMONELLA TYPHIMURIUM, Strain/Indicator: TA1535, Metabolic Activation: NONE, Method: GAS EXPOSURE
  mutagenic call: inactive; negative
Test System: AMES SALMONELLA TYPHIMURIUM, Strain/Indicator: TA1535, Metabolic Activation: RAT LIVER S-9, PHENOBARBITAL AND BETA-NAPHTHOFLAVONE, Method: GAS EXPOSURE
  mutagenic call: inactive; negative
Test System: AMES SALMONELLA TYPHIMURIUM, Strain/Indicator: TA1537, Metabolic Activation: NONE, Method: GAS EXPOSURE
  mutagenic call: inactive; negative
Test System: AMES SALMONELLA TYPHIMURIUM, Strain/Indicator: TA1537, Metabolic Activation: RAT LIVER S-9, PHENOBARBITAL AND BETA-NAPHTHOFLAVONE, Method: GAS EXPOSURE
  mutagenic call: inactive; negative
Test System: E.COLI, Strain/Indicator: WP2UVRA, Metabolic Activation: NONE, Method: GAS EXPOSURE
  mutagenic call: inactive; negative
Test System: E.COLI, Strain/Indicator: WP2UVRA, Metabolic Activation: RAT LIVER S-9, PHENOBARBITAL AND BETA-NAPHTHOFLAVONE, Method: GAS EXPOSURE
  mutagenic call: inactive; negative

## c1ccc2c(c1)-c1c(ccc3ccccc13)C1OC21 (centres undefined)
Test System: AMES SALMONELLA TYPHIMURIUM, Strain/Indicator: TA98, Metabolic Activation: NONE, Method: PREINCUBATION (KCL-CONTAINING MEDIUM)
  mutagenic call: active; positive
Test System: AMES SALMONELLA TYPHIMURIUM, Strain/Indicator: TA98, Metabolic Activation: NONE, Method: PREINCUBATION (KCL-FREE MEDIUM)
  mutagenic call: active; positive
Test System: AMES SALMONELLA TYPHIMURIUM, Strain/Indicator: TA100, Metabolic Activation: NONE, Method: PREINCUBATION (KCL-CONTAINING MEDIUM)
  mutagenic call: active; positive
Test System: AMES SALMONELLA TYPHIMURIUM, Strain/Indicator: TA100, Metabolic Activation: NONE, Method: PREINCUBATION (KCL-FREE MEDIUM)
  mutagenic call: active; positive

## O=C(CBr)NCc1ccccc1
Test System: AMES SALMONELLA TYPHIMURIUM, Strain/Indicator: TA100, Metabolic Activation: MOUSE, LIVER, S-9, AROCLOR 1254, Method: STANDARD PLATE
  mutagenic call: active; positive
[2]
  mutagenic call: inactive; negative

## Cc1ccc2cccnc2c1
Test System: AMES SALMONELLA TYPHIMURIUM, Strain/Indicator: TA98, Metabolic Activation: HAMSTER, LIVER, S-9, AROCLOR 1254 (30%), Method: PREINCUBATION
  mutagenic call: active; positive
[3]
  mutagenic call: inactive; negative
Test System: AMES SALMONELLA TYPHIMURIUM, Strain/Indicator: TA98, Metabolic Activation: RAT, LIVER, S-9, AROCLOR 1254 (30%), Method: PREINCUBATION
  mutagenic call: inactive; negative
Test System: AMES SALMONELLA TYPHIMURIUM, Strain/Indicator: TA100, Metabolic Activation: HAMSTER, LIVER, S-9, AROCLOR 1254 (30%), Method: PREINCUBATION
  mutagenic call: active; positive
[5]
  mutagenic call: inactive; negative
Test System: AMES SALMONELLA TYPHIMURIUM, Strain/Indicator: TA100, Metabolic Activation: RAT, LIVER, S-9, AROCLOR 1254 (30%), Method: PREINCUBATION
  mutagenic call: active; positive
Test System: AMES SALMONELLA TYPHIMURIUM, Strain/Indicator: TA100, Metabolic Activation: RAT, LIVER, S-9, PHENOBARBITAL AND 5,6-BENZOFLAVONE, Method: PREINCUBATION
  mutagenic call: active; positive
Test System: AMES SALMONELLA TYPHIMURIUM, Strain/Indicator: TA100, Metabolic Activation: RAT, LIVER, S-9, PHENOBARBITAL AND 5,6-NAPHTHOFLAVONE, Method: PREINCUBATION
  mutagenic call: active; positive
Test System: AMES SALMONELLA TYPHIMURIUM, Strain/Indicator: TA100, Metabolic Activation: RAT, LIVER, S-9, Method: PREINCUBATION
  mutagenic call: active; positive

## Cc1cc2c(c3ccc4ccccc4c13)[C@H]1O[C@H]1[C@@H](O)[C@@H]2O
[5]
  mutagenic call: inactive; negative

## COc1cccc2c1C(=O)c1c(O)c3c(c(O)c1C2=O)C[C@@](O)(C(=O)CO)CC3O[C@H]1C[C@H](N(C)C)[C@H](O)[C@H](C)O1 (some centres undefined)
Test System: AMES SALMONELLA TYPHIMURIUM, Strain/Indicator: TA98, Metabolic Activation: NONE
  mutagenic call: inactive; negative
Test System: AMES SALMONELLA TYPHIMURIUM, Strain/Indicator: TA98, Metabolic Activation: RAT, LIVER, S-9, AROCLOR 1254
  mutagenic call: inactive; negative
[4]
  mutagenic call: active; positive
Test System: UDS RAT HEPATOCYTES, Strain/Indicator: THY INCORP, Metabolic Activation: NONE, Method: AUTOMATIC COLONY COUNTER
  mutagenic call: active; positive

## CCOC(=O)C(C)Br (centres undefined)
[2]
  mutagenic call: active; positive

## O=C/C=C/C=C/CO
Test System: CHINESE HAMSTER V-79, Strain/Indicator: V-79 (HGPRT)/8-AZAGUANINE, Metabolic Activation: NONE
  mutagenic call: active; positive

## NC(=O)Nc1cccc2cccnc12
Test System: AMES SALMONELLA TYPHIMURIUM, Strain/Indicator: TA100, Metabolic Activation: S-9, Method: PREINCUBATION
  mutagenic call: inactive; negative
